Test results as given in BindingDB's records for doi:10.1016/s0960-894x(01)00005-1 (Graduate School of Bioscience and Biotechnology, 2001).

How the values were obtained:
[1] = Inhibitory activity against peptide binding to the RRE RNA was determined
[2] = Dissociation constant for TAR RNA

| Compound | IC50 [1] [nM] | Kd [2] [nM] |
| --- | --- | --- |
| N=C(N)NCCCC(N)C(=O)NCC1OC(OC2C(N)CC(N)C(O)C2O)C(N)C(O)C1O [2-Amino-5-guanidino-pentanoic acid [(4R,5S,6S)-5-amino-6-((2R,3R,4R)-4,6-diamino-2,3-dihydroxy-cyclohexyloxy)-3,4-dihydroxy-tetrahydro-pyran-2-ylmethyl]-amide] | 460 |  |
| N=C(N)NCCCC(NC(=O)c1ccc2ccc3cccc4ccc1c2c34)C(=O)NCC1OC(OC2C(N)CC(N)C(O)C2O)C(N)C(O)C1O (stereo not drawn) [Neamine derivative] |  | 30 |
| NC1CC(N)C(OC2OC(CNC(=O)c3ccc4ccc5cccc6ccc3c4c56)C(O)C(O)C2N)C(O)C1O [Pyrene-1-carboxylic acid [(4R,5S,6S)-5-amino-6-((2R,3R,4R)-4,6-diamino-2,3-dihydroxy-cyclohexyloxy)-3,4-dihydroxy-tetrahydro-pyran-2-ylmethyl]-amide] |  | 290 |
